Laboratory results from patent US20110124032A1, “Methods and Compositions for Treating Carcinoma Stem Cells” (priority 2008, published 2011).

Tests used:
[1] = test system: Thy1+CD24+Lin− CSC-enriched cells from MMTV-Wnt-1 breast tumors; assay: In vitro colony assay (clonogenic survival), CSC-enriched cells; format: cell-based, mouse
Excerpt: Given the overexpression of genes involved in GSH synthesis by CSCs, we wished to assess the sensitivity of these cells to ROS elevation via pharmacologic depletion of GSH. Exposure of Thy1^+CD24^+Lin″ CSC-enriched cells to Buthionine Sulfoximine (BSO), which inhibits glutamate-cysteine ligase, decreased their colony forming ability by approximately three fold (FIG. 4d). Finally, we asked if GSH depletion would radiosensitize CSCs. […] The mechanism leading to low ROS levels in some CSCs appears to be at least partially due to the increased production of free radical scavengers. […] The low ROS subset found in the various stem cell populations may also represent a quiescent subpopulation. […]
Cells were analyzed, collected by FACS, and injected into recipient mice as described with minor modifications from mouse mammary glands, human breast cancers, human head and neck cancers, and MMTV-Wnt-1 mouse tumors. […] For intracellular ROS analysis, cells were loaded with 10 μM DCF-DA (Invitrogen), incubated at 37° C. for 30 min, and immediately analyzed by flow cytometry. […] DNA damage was evaluated using the single-cell gel electrophoresis assay under alkaline conditions. […] After reverse transcription, genes were pre-amplified (22 cycles) using the same Taqman primers (Applied Biosystems) used for quantification. Products were analyzed using qPCR DynamicArray microfluidic chips (Fluidigm). […]

[2] = test system: “Not Thy1+CD24+” Lin− non-tumorigenic cells (NTCs) from MMTV-Wnt-1 breast tumors; assay: In vitro colony assay (clonogenic survival after ionizing radiation), non-tumorigenic cells; format: cell-based, mouse; conditions: 10 mM tempol for 15 minutes prior to irradiation, drug then removed; FIG. 4c
Excerpt: In order to pharmacologically manipulate ROS levels separately in CSCs and NTCs, we employed in vitro culture conditions that allowed both cell populations to produce colonies upon co-culture with irradiated feeder cells. […] When exposed to 2 Gy, a dose commonly administered clinically during daily treatments of breast cancer patients, 2.0-fold+/−0.2 more CSC-enriched colonies survived than NTC colonies. Next, we attempted to radioprotect NTCs by exposing them to the nitroxide antioxidant tempol.
Cells were analyzed, collected by FACS, and injected into recipient mice as described with minor modifications from mouse mammary glands, human breast cancers, human head and neck cancers, and MMTV-Wnt-1 mouse tumors. […] For intracellular ROS analysis, cells were loaded with 10 μM DCF-DA (Invitrogen), incubated at 37° C. for 30 min, and immediately analyzed by flow cytometry. […] DNA damage was evaluated using the single-cell gel electrophoresis assay under alkaline conditions. […] After reverse transcription, genes were pre-amplified (22 cycles) using the same Taqman primers (Applied Biosystems) used for quantification. Products were analyzed using qPCR DynamicArray microfluidic chips (Fluidigm). […] After 24-48 hrs, the media was replaced with serum-free Epicult B, and colonies counted ˜7 days later. […] Levels of significance were determined by Student's t-tests using (=0.05. […]

Row | SMILES | Clonogenic survival after ionizing radiation (radiosensitization) ([1]; 1 mM BSO 24 hour pretreatment, removed prior to irradiation, 3 Gy, FIG. 4e) | Decrease in colony forming ability ([1]; 24 hour pre-treatment with 1 mM BSO, no irradiation, FIG. 4d) | Clonogenic survival of NTCs after irradiation (radioprotection) [2]
1 | CCCCS(=N)(=O)CC[C@H](N)C(=O)O (stereo partly drawn) [BSO, L-S,R-Buthionine Sulfoximine] | significant radiosensitization | approximately three | 
2 | CC1(C)CC(O)CC(C)(C)N1[O] [tempol] |  |  | radioprotected NTCs, and resulted in survival levels similar to those seen in the CSC-enriched population
